{"source": "patent US9951039B2", "about": "“Pyrimidines for treatment of bacterial infections” (The Hong Kong Polytechnic University, priority 2016, dated 2018)", "key": {"[1]": {"test_system": "FtsZ GFP fusion stain of B. subtilis 168", "test": "Z-ring visualization, GFP tagged FtsZ in B. subtilis 168", "type": "cell-based", "settings": "6 μM test compound, 4 hours", "procedure": "Procedure: A single colony of FtsZ GFP fusion stain of B. subtilis 168 was grown in 5 ml 2×TY medium with 35 mg/L chloramphenicol for 14 hours at 30° C. An overnight culture was then diluted to an OD600 of 0.01 by 2×TY medium containing the absence (DMSO) and presence of 6 μM test compounds and 40 μM of IPTG, it grew at 30° C. after 4 hours of incubation; the cells were pelleted and re-suspended in 300 μL PBS buffer containing 1% agarose. 10 μL suspensions were then placed on the microscopic slide. The morphology of bacterial cell was observed under a fluorescent and phase-contrast microscope at 40× magnification, using the software of Olympus FSX100® Bio Imaging Navigator to capture images."}, "S. aureus FtsZ": {"biological_target": "T1, S. aureus FtsZ (Staphylococcus aureus, UniProt P0A031)", "T1 construct": "6-histidine tag; made in house; host or cells: E. coli BL21(DE3)", "T1 sequence (P0A031 1-390)": "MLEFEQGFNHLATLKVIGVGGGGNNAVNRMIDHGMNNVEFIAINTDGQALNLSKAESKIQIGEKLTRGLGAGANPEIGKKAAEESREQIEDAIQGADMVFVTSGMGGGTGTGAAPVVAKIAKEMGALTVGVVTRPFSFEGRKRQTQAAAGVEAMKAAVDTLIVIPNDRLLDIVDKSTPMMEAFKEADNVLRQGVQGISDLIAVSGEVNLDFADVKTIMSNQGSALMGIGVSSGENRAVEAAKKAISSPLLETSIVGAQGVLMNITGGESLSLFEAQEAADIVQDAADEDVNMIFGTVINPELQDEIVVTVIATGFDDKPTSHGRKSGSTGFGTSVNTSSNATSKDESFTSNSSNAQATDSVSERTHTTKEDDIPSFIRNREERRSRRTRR", "test": "GTPase hydrolysis assay (CytoPhos phosphate assay)", "type": "biochemical", "procedure": "Procedure for expression and purification of S. aureus FtsZ protein: S. aureus FtsZ protein was prepared as previous reported.^16a In brief, E. coli BL21(DE3) cells, transformed with a pRSET-A-S vector carrying S. aureus FtsZ with a 6-histidine tag attached, were streaked on a nutrient agar plate containing 50 μg/mL ampicillin. After overnight incubation at 37° C., a single colony was inoculated into 5 mL of Luria-Bertani (LB) medium in the presence of 50 μg/mL ampicillin, which was then incubated at 37° C., with shaking at 250 rpm for 16 h. The overnight culture was transferred into a fresh 2×TY medium in a dilution ratio of 1:100 and 50 μg/mL ampicillin was then added, followed by incubation at 37° C. with shaking at 250 rpm. When OD600 reached 0.8, protein expression was induced with 0.4 mM isopropyl-β-D-thiogalactopyranoside (IPTG) for 4 h. Cells were harvested by centrifugation at 9000 rpm for 20 min at 4° C. […]\nProcedure: The inhibitory effect of compound 14av_amine16 on GTPase hydrolysis activity was investigated according to the protocol described previously.^18 The GTPase activity of S. aureus FtsZ was estimated in a 96-well microplate using a CytoPhos phosphate assay Biochem Kit based on the manufacturer's instructions. […] The precipitated inorganic phosphate was quantified by measuring the absorbance at 650 nm in a microplate reader. […]"}, "[2]": {"test_system": "S. aureus ATCC BAA-41 (methicillin resistant)", "test": "MIC against clinically isolated strain 4", "type": "cell-based", "settings": "Staphylococcus aureus, ATCCBAA41", "procedure": "(§1) Procedure of Antimicrobial susceptibility test: The MIC value of compounds was measured in the antimicrobial susceptibility test using the broth microdilution procedure in accordance with the CLSI guidelines.^21 Cation-adjusted Mueller Hinton broth (CA-MHB) was used for all the S. aureus strains in the assay. Cells in exponential phase of growth were diluted to approximately 5×10^5 cfu/mL. Stock solutions of each compound were freshly dissolved in dimethyl sulfoxide (DMSO). Then, serial dilutions of each compound in CA-MHB medium were added into 96-well microplate. The final percentage of DMSO in the assay was 1%. Control experiments were performed with 1% DMSO instead of the compound solution. After being incubated at 37° C. for 18 h, OD600 value of cells was measured on a microplate reader and the percentage of bacterial cell inhibition with respect to controls was calculated. The MIC value was defined as the lowest compound concentration at which the growth of bacteria was inhibited by ≥90%. Three independent assays were performed for each compound.\n(§2) Results: Three compounds, namely 14av_amine16, 14dv_amine16 and 14dv_amine06, were selected to be tested against nine in-house clinically isolated bacterial strains including S. aureus ATCC29247, which is an ampicillin resistant strain, S. aureus ATCC BAA-41, ATCC BAA-1717, ATCC BAA-1720, ATCC 43300 which are methicillin resistant strains and four USA300 strains, (#417, #757, #1799 and #2690), which are the predominant strain type of community-associated MRSA strains in the United States."}, "[3]": {"test_system": "USA300 #417 (community-associated MRSA)", "test": "MIC against clinically isolated strain 6", "type": "cell-based, S. aureus", "settings": "Staphylococcus aureus", "procedure": "as §1, §2"}}, "data": [{"smiles": "CCC(CC)c1cc(CCN2CCCN(Cc3ccc(C(F)(F)F)cc3)CC2)nc(-c2ccncc2)n1", "note": "[Compound 14av_amine16, 1-(2-(6-(pentan-3-yl)-2-(pyridin-4-yl)pyrimidin-4-yl)ethyl)-4-(4-(trifluoromethyl)benzyl)-1,4-diazepane]", "values": [{"measurement": "Z-ring localization", "setting": "[1]", "result": "obvious mislocalization of the Z-ring"}, {"measurement": "inhibition at 50 µM", "setting": "S. aureus FtsZ; compound at 50 μM", "result": "~20", "unit": "%"}, {"measurement": "inhibition at 75 µM", "setting": "S. aureus FtsZ; compound at 75 μM", "result": "~25", "unit": "%"}, {"measurement": "MIC", "setting": "[2]", "result": 12, "unit": "µM"}, {"measurement": "MIC", "setting": "[3]", "result": 12, "unit": "µM"}]}]}
